Paper PMC10861955 (Heliyon, 2024)

Target: T1, Helicobacter pylori inosine 5′-monophosphate dehydrogenase (HpIMPDH) (Helicobacter pylori, UniProt P56088)
T1 sequence (P56088 1-481): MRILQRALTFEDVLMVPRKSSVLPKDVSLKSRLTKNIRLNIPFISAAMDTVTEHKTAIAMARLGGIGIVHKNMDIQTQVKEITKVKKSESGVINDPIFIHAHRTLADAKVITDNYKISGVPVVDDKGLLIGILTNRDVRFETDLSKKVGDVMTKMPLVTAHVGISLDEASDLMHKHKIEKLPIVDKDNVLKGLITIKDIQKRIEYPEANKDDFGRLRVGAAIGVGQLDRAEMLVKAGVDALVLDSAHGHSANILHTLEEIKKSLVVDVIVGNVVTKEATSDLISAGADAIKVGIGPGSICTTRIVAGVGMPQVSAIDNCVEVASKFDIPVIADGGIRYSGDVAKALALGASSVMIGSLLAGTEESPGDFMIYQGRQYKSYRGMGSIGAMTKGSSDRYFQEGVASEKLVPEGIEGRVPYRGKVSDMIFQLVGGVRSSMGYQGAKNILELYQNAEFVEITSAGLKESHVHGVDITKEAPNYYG
Assay: fluorescence assay of NADH formation, […] HpIMPDH
Format: biochemical

Row | SMILES | IC50 [nM]
1 | COc1cc(OC)c2ccc(=O)oc2c1 [Compound 3, 5,7-di-methoxy-2H-chromen-2-one] | 2400
2 | COc1c2occc2cc2ccc(=O)oc12 [Compound 2, xanthotoxin] | 2800
